The values below are quoted from earlier work in US6811967B2 (The University of Manitoba, priority 2001, dated 2004).

Series [1] deals with T1, human SSAT (Homo sapiens, UniProt P21673).
T1 construct: host or cells: E. coli
The note with it: human SSAT expressed in E. coli (Parry et al. 1995).

The conditions of series [2]: weak base, primary amine.
The conditions of series [3]: Sprague-Dawley rats, same therapeutic dose (Goralski et al. 1999).

T1 sequence (P21673 whole entry): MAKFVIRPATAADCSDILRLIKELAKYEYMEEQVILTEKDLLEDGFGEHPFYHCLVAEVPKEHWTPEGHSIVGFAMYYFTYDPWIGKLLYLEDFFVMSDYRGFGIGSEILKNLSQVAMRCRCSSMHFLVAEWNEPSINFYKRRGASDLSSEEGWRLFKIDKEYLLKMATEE

Take `NCCCNCCS` [WR1065, S-2-(3-aminopropylamino) ethanethiol]: the “acetylation by SSAT” value in series [1] is “acetylated by SSAT”.

Turning to `N=C(N)NCCCCCCC(=O)NC(O)C(=O)NCCCCNCCCN` (centres unmarked) [1-deoxyspergualin], the “acetylation by SSAT” value in series [1] was “acetylated by SSAT”.

For `NC12CC3CC(CC(C3)C1)C2` [amantadine, 1-adamantanamine], in series [2], the pKa is 10.1. Besides, the “urinary excretion of acetylamantadine” value in series [3] is “did not excrete acetylamantadine”.

Turning to `CCCCNCCCN` [N-(n-butyl)-1,3-diaminopropane], the “acetylation by SSAT” value in series [1] is “acetylated by SSAT”.

The term pKa denotes the negative logarithm of the acid dissociation constant.
